Results: patent US5079257A, “Indoloquinone compounds” (priority 1986, dated 1992)
≈ marks a conversion by molar mass, not a printed value. Where two headings read alike, the source gives them in different places.

Key:
[1] = Half-wave reduction potentials / polarography (University of Utrecht); type: physicochemical; conditions: Table IA; only the first (quinone) reduction potential
Text: *The halve wave reduction potentials (E1/2) have been determined at the
Pharmaceutical Laboratory of University of Utrecht. Only the first
(quinone) reduction potential has been given.
Additional evidence for the occurrence of a bioreductive activation mechanism during the cytotoxic action of indoloquinones (II) was obtained via electrochemical studies, which have been carried out at the Pharmaceutical Laboratory of the University of Utrecht. […]

L1210 cells = test: L1210 activity (bioliquid assay), cytotoxicity; type: cell-based; conditions: for IC50: Mus musculus; for ID-50 L1210: Table VI, 2880 min
Text: The indoloquinones II (formula II) have been tested in respect of their cytotoxic activity against L1210 cells and R-1 cells (Rhabdomyosarcoma Cells) in a bioliquid assay at the department of oncology of the Free University of Amsterdam (Table I). In addition to this seven compounds (E.O. 1, E.O. 2, E.O. 4, E.O. 7, E.O. 9, E.O. 16 and E.O. 17) have been tested on L1210 activity in a clonogenic assay at TNO, Rijswijk. Further, the lowest active doses of the compounds E.O. 1, E.O. 2, E.O. 4 and E.O. 9 have been determined at TNO Rijswijk, according to the method described by Lamberts et al. [Oncology, 40, 301 (1983)]. (Table II). Eight indoloquinones (E.O. 1, E.O. 2, E.O. 4, E.O. 4A, E.O. 8, E.O. 9, E.O. 33 and E.O. 35) have been tested in a panel of five human tumour lines (TNO Rijswijk; Table III). From the latter group three indoloquinones (E.O. 1, E.O. 4 and E.O. 9) have been selected for a cytotoxicity study, involving five slowly growing human tumour lines (University of Freiburg; Table IV).
For this purpose, L1210 cells were grown, as suspension, in Falcon multi-wells (growth area: 9.6 cm^2) using RPMI supplemented with 15% FCS and 2-mercapto-ethanol (60 μmol) as medium. In this medium, the cells were continuously incubated with the compound to be tested at 37° C. in an atmosphere of 5% CO2 in humidified air for 48 hours. Thereupon they were counted on a Sysmex microcell counter (CC110).
(§1) The in vitro L1210 and R-1 activities of the indoloquinones (formula III), were also determined in the bioliquid assays as described above.

[2] = tested on: R-1 cells (Rhabdomyosarcoma Cells); test: R-1 activity (bioliquid assay), cytotoxicity; type: cell-based; conditions: Rhabdomyosarcoma cell
Text: The indoloquinones II (formula II) have been tested in respect of their cytotoxic activity against L1210 cells and R-1 cells (Rhabdomyosarcoma Cells) in a bioliquid assay at the department of oncology of the Free University of Amsterdam (Table I). […] (Table II). Eight indoloquinones (E.O. 1, E.O. 2, E.O. 4, E.O. 4A, E.O. 8, E.O. 9, E.O. 33 and E.O. 35) have been tested in a panel of five human tumour lines (TNO Rijswijk; Table III).
For the determination of the R-1 activity, Rhabdomyosarcoma cells were brought into Falcon multiwells (growth area: 9.6 cm^2) (~10^6 cells per dish) containing 3 ml of Dulbecco's medium supplemented with 10% Foeto Calf Serum (FCS). […] Thereupon the drug solution was removed and the cells were covered with fresh medium. After 48 hours the cells were trypsinized and counted on a Sysmex microcell counter (CC110).
as §1

MCF7 breast cancer cells = test: In vitro panel of human tumour lines (TNO): MCF-7; type: cell-based; conditions: about 72 hours; further: key: -: no inhibition of cell growth; +: total cell-kill
Experimental: (§2) Compounds E.O. 1, E.O. 2, E.O. 4, E.O. 4A, E.O. 8, E.O. 9, […], E.O. 33, and E.O. 35 were tested for their activity against five human tumour cell lines at the Radiobiological Institute TNO Rijswijk.
(§3) The new in vitro prescreen uses human tumour clones; it was set up by Dr. P. Lelieveld at TNO Rijswijk and comprises testing compounds in a bioliquid assay for their cytostatic activity against the following five human tumour lines:
(§4) After a continuous exposure to the drugs to be tested and to Adriamycin in `24 well tissue culture clusters, type 3524 (Costar)`, the remaining cells are fixed and stained. Using increasing drug concentrations the inhibiting concentration can be estimated qualitatively.
(§5) Cells: the human tumour cells are maintained in Dulbecco's medium supplemented with 10 percent foetal calf serum.
(§6) M and W cell suspensions: 10^5 cells/ml.
(§7) The cells were grafted into 16 mm wells for 48 hours (0.5 ml cell suspension per well was used).
(§8) Drugs: the compound to be tested was dissolved in appropriate concentrations in a mixture of Hepes-buffered Hanks' balanced salt solution and ethanol. The drug solutions (0.05 ml) were added to the different wells. The final ethanol concentration in each well was less than one percent.
(§9) The cells were continuously incubated with the compound under test at 37° in an atmosphere of 10 percent CO2 in humidified air for about 72 hours.
(§10) Determination of the inhibiting dose: the cells were fixed and stained with a solution of crystal violet in methanol/formaldehyde.

[3] = tested on: T 24 cells; bladder carcinoma; test: In vitro panel of human tumour lines (TNO): T 24; type: cell-based; conditions: about 72 hours; further: key: -: no inhibition of cell growth; +: total cell-kill
Experimental: as §2, §3, §4, §5
(§11) A, T and Z cell suspensions: 5·10^4 cells/ml
as §7, §8, §9, §10

[4] = tested on: A 204 cells; rhabdomyosarcoma; test: In vitro panel of human tumour lines (TNO): A 204; type: cell-based; conditions: about 72 hours; further: key: -: no inhibition of cell growth; +: total cell-kill
Experimental: as §2, §3, §4, §5, §11, §7, §8, §9, §10

IgR37 cells melanoma = test: In vitro panel of human tumour lines (TNO): IgR-37; type: cell-based; conditions: about 72 hours; further: key: -: no inhibition of cell growth; +: total cell-kill
Experimental: as §2, §3, §4, §5, §11, §7, §8, §9, §10

WiDr cells; colon tumour = test: In vitro panel of human tumour lines (TNO): WiDr; type: cell-based; conditions: about 72 hours; further: key: -: no inhibition of cell growth; +: total cell-kill
Experimental: as §2, §3, §4, §5, §6, §7, §8, §9, §10

[5] = L1210, 48 h, read-out: ID-50 L1210, Table IA, para-indoloquinone diesters
[6] = read-out: ID-50 R-1, Table IA, para-indoloquinone diesters
[7] = L1210, Table I, bioliquid assay, 48 hours, read-out: ID-50 L1210
[8] = Table I, bioliquid assay, read-out: ID-50 R-1

## COC(=O)/C=C/c1c(C(=O)OC)c2c(n1C)C(=O)C=C(N1CC1C)C2=O (stereo not drawn) [E.O. 28, Methyl 3-methoxycarbonyl-1-methyl-5-propyleneamino-2-[1H-indole-4,7-dione]acrylate]
[1]
  E1/2, halve wave reduction potential: -171 mV
L1210 cells; [5]
  IC50: 2.2 µg/mL (≈ 6.14 µM)
[2]; [6]
  IC50: 5.7 µg/mL (≈ 15.9 µM)

## COC(=O)/C=C/c1[nH]c2c(c1C(=O)OC)C(=O)C(OC)=CC2=O [E.O. 29, Methyl 5-methoxy-3-methoxycarbonyl-2-[1H-indole-4,7-dione]acrylate]
[1]
  E1/2, halve wave reduction potential: -211 mV
L1210 cells; L1210, 48 h, Table IA, para-indoloquinone diesters, read-out: ID-50 L1210
  IC50: 2.2 µg/mL (≈ 6.89 µM)
[2]; Table IA, para-indoloquinone diesters, read-out: ID-50 R-1
  IC50: 4.9 µg/mL (≈ 15.3 µM)

## COC1=C(C)C(=O)c2c(c(COC(C)=O)c(/C=C/COC(C)=O)n2C)C1=O [E.O. 33, 3-Acetoxymethyl-1,6-dimethyl-5-methoxy-2-[1H-indole-4,7-dione]prop-β-en-α-yl acetate]
MCF7 breast cancer cells; 0.01 μg/ml
  in vitro activity score, MCF-7: -
MCF7 breast cancer cells; 0.1 μg/ml
  in vitro activity score, MCF-7: -
MCF7 breast cancer cells; 1.0 μg/ml
  in vitro activity score, MCF-7: -
[3]; 0.01 μg/ml
  in vitro activity score, T 24: -
[3]; 0.1 μg/ml
  in vitro activity score, T 24: -
[3]; 1.0 μg/ml
  in vitro activity score, T 24: -
[3]; 10 μg/ml
  in vitro activity score, T 24: +
[4]; 0.01 μg/ml
  in vitro activity score, A 204: -
[4]; 0.1 μg/ml
  in vitro activity score, A 204: -
[4]; 1.0 μg/ml
  in vitro activity score, A 204: -
[4]; 10 μg/ml
  in vitro activity score, A 204: +
IgR37 cells melanoma; 0.01 μg/ml
  in vitro activity score, IgR-37: -
IgR37 cells melanoma; 0.1 μg/ml
  in vitro activity score, IgR-37: -
IgR37 cells melanoma; 1.0 μg/ml
  in vitro activity score, IgR-37: -
IgR37 cells melanoma; 10 μg/ml
  in vitro activity score, IgR-37: +
L1210 cells; [7]
  IC50: 3.6 µg/mL
WiDr cells; colon tumour; 0.01 μg/ml
  in vitro activity score, WiDr: -
WiDr cells; colon tumour; 0.1 μg/ml
  in vitro activity score, WiDr: -
WiDr cells; colon tumour; 1.0 μg/ml
  in vitro activity score, WiDr: -
[2]; [8]
  IC50: 2.2 µg/mL

## COC(=O)/C=C/c1c(C(=O)OC)c2c(n1C)C(=O)C(C)=C(N1CC1)C2=O [E.O. 34, Methyl 5-aziridino-1,6-dimethyl-3-methoxycarbonyl-2-[1H-indole-4,7-dione]acrylate]
[1]
  E1/2, halve wave reduction potential: -239 mV
L1210 cells; [5]
  IC50: 2.7 µg/mL (≈ 7.53 µM)
[2]; [6]
  IC50: 2.8 µg/mL (≈ 7.81 µM)

## CC(=O)OC/C=C/c1c(COC(C)=O)c2c(n1C)C(=O)C=C(N1CCOCC1)C2=O [E.O. 60, 3-Acetoxymethyl-1-methyl-5-morpholino-2-[1H-indole-4,7-dione]prop-β-en-α-yl acetate]
L1210 cells; [7]
  IC50: > 10 µg/mL
L1210 cells
  ID-50 L1210: > 10 µg/mL
[2]; [8]
  IC50: 3.3 µg/mL

## CC(=O)OCc1c2c(n(C)c1/C=C/CO)C(=O)C=C(NCCc1ccccn1)C2=O [E.O. 62, 3-Acetoxymethyl-1-methyl-5-[2-pyridylethyl-1-amino]-2-[1H-indole-4,7-dione]prop-β-en-α-ol]
L1210 cells; [7]
  IC50: > 10 µg/mL
L1210 cells
  ID-50 L1210: > 10 µg/mL
[2]; [8]
  IC50: > 10 µg/mL
[2]; Table VI, read-out: ID-50 R-1
  IC50: > 10 µg/mL

## CCC1(O)CC2CN(CCc3c([nH]c4ccccc34)C(C(=O)OC)(c3cc4c(cc3OC)N(C)C3C(O)(C(=O)OC)C(OC(C)=O)C5(CC)C=CCN6CCC43C65)C2)C1 (stereo not drawn) [Vinblast., reference compound]
MCF7 breast cancer cells; 1.0 μg/ml
  in vitro activity score, MCF-7: +
MCF7 breast cancer cells; 10 μg/ml
  in vitro activity score, MCF-7: +
[3]; 0.1 μg/ml
  in vitro activity score, T 24: +
IgR37 cells melanoma; 0.01 μg/ml
  in vitro activity score, IgR-37: +
IgR37 cells melanoma; 0.1 μg/ml
  in vitro activity score, IgR-37: +
WiDr cells; colon tumour; 0.01 μg/ml
  in vitro activity score, WiDr: +
WiDr cells; colon tumour; 0.1 μg/ml
  in vitro activity score, WiDr: +
WiDr cells; colon tumour; 1.0 μg/ml
  in vitro activity score, WiDr: +
WiDr cells; colon tumour; 10 μg/ml
  in vitro activity score, WiDr: +

## CCC1(O)CC2CN(CCc3c([nH]c4ccccc34)C(C(=O)OC)(c3cc4c(cc3OC)N(C=O)C3C(O)(C(=O)OC)C(OC(C)=O)C5(CC)C=CCN6CCC43C65)C2)C1 (stereo not drawn) [Vincrist., reference compound]
[3]; 0.01 μg/ml
  in vitro activity score, T 24: -
[3]; 0.1 μg/ml
  in vitro activity score, T 24: +
IgR37 cells melanoma; 0.01 μg/ml
  in vitro activity score, IgR-37: +
IgR37 cells melanoma; 0.1 μg/ml
  in vitro activity score, IgR-37: +
WiDr cells; colon tumour; 0.01 μg/ml
  in vitro activity score, WiDr: +
WiDr cells; colon tumour; 0.1 μg/ml
  in vitro activity score, WiDr: +
